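All cell lines were grown in 96-well plates and treated with compound for 48 hours. Abbreviation: GI50, concentration required for 50% inhibition of growth.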 Activity calls are given as the source filed them. No stated cut-off is given here; in the data, active = GI50 up to about 1.1 µM and inactive = higher.
How the values were obtained:
Experiment in all cases: NCI tumour cell line growth inhibition, 48 h
A549 = system: A549
ACHN = system: ACHN
EKVX = system: EKVX
HCT-116 = system: HCT-116
MCF7 = system: MCF7
MDA-N = system: MDA-N
Malme-3M = system: Malme-3M
NCI/ADR-RES = system: NCI/ADR-RES
SF-268 = system: SF-268
SF-295 = system: SF-295
SF-539 = system: SF-539
SK-MEL-5 = system: SK-MEL-5
SR = system: SR
SW-620 = system: SW-620
T47D = system: T47D
U-251 = system: U-251
UACC-257 = system: UACC-257
CAKI-1 = system: CAKI-1
NCI-H460 = system: NCI-H460

Row | SMILES | GI50 (A549) | GI50 (ACHN) | GI50 (EKVX) | GI50 (HCT-116) | GI50 (MCF7) | GI50 (MDA-N) | GI50 (Malme-3M) | GI50 (NCI/ADR-RES) | GI50 (SF-268) | GI50 (SF-295) | GI50 (SF-539) | GI50 (SK-MEL-5) | GI50 (SR) | GI50 (SW-620) | GI50 (T47D) | GI50 (U-251) | GI50 (UACC-257) | GI50 (CAKI-1) | GI50 (NCI-H460)
1 | CCCCc1ccc(Nc2nc(O)c3ncn(COCCO)c3n2)cc1 | > 100 µM (inactive) | > 100 µM (inactive) | > 100 µM (inactive) | > 100 µM (inactive) | > 100 µM (inactive) | > 100 µM (inactive) | > 100 µM (inactive) | > 100 µM (inactive) | > 100 µM (inactive) | > 100 µM (inactive) | > 100 µM (inactive) | > 100 µM (inactive) | 88.3 µM (inactive) | > 100 µM (inactive) | 73.1 µM (inactive) | 57.4 µM (inactive) | > 100 µM (inactive) |  | 
2 | O=C1c2ccccc2-n2c1nc1ccc(Cl)cc1c2=O | 26.1 µM (inactive) | > 100 µM (inactive) | 92 µM (inactive) | 71.4 µM (inactive) | 83.9 µM (inactive) | 16.6 µM (inactive) |  | > 100 µM (inactive) |  | 42.3 µM (inactive) | > 100 µM (inactive) | > 100 µM (inactive) | 77.4 µM (inactive) | > 100 µM (inactive) | 0.474 µM (active) | 34.5 µM (inactive) | 42.1 µM (inactive) | 33 µM (inactive) | > 100 µM (inactive)
3 | O=C1C(NCCc2cc(Cl)c(O)c(Cl)c2)=CC(=O)c2[nH]cnc21 | 33.9 µM (inactive) | 47 µM (inactive) | 32.1 µM (inactive) | 27.1 µM (inactive) | 26.9 µM (inactive) | 19.6 µM (inactive) | 4.57 µM (inactive) | > 100 µM (inactive) |  | 18 µM (inactive) | 39.5 µM (inactive) | 17.3 µM (inactive) | 32.6 µM (inactive) | 47.8 µM (inactive) | 21.7 µM (inactive) | 39.7 µM (inactive) | 26 µM (inactive) |  | 26.5 µM (inactive)
4 | CC#CCOC(=O)c1ccccc1OC(C)=O |  | > 100 µM (inactive) | > 100 µM (inactive) | > 100 µM (inactive) | > 100 µM (inactive) | > 100 µM (inactive) |  | > 100 µM (inactive) | > 100 µM (inactive) | > 100 µM (inactive) | > 100 µM (inactive) | > 100 µM (inactive) | > 100 µM (inactive) | > 100 µM (inactive) | > 100 µM (inactive) | > 100 µM (inactive) | > 100 µM (inactive) | > 100 µM (inactive) | > 100 µM (inactive)
5 | CN(O)C(=O)c1cccc(Cl)c1 | > 100 µM (inactive) | > 100 µM (inactive) | > 100 µM (inactive) | > 100 µM (inactive) | > 100 µM (inactive) | > 100 µM (inactive) |  | > 100 µM (inactive) | > 100 µM (inactive) | > 100 µM (inactive) | > 100 µM (inactive) | > 100 µM (inactive) | 32.7 µM (inactive) | > 100 µM (inactive) | > 100 µM (inactive) | > 100 µM (inactive) | > 100 µM (inactive) | > 100 µM (inactive) | 95.1 µM (inactive)
6 | O=C(O)c1ccccc1/C=N/N=C1NCCN1 | > 100 µM (inactive) | 98.9 µM (inactive) | > 100 µM (inactive) | > 100 µM (inactive) | 91.2 µM (inactive) | > 100 µM (inactive) | 88.1 µM (inactive) | > 100 µM (inactive) | 97.9 µM (inactive) | > 100 µM (inactive) | > 100 µM (inactive) | > 100 µM (inactive) | 88.5 µM (inactive) | > 100 µM (inactive) | > 100 µM (inactive) | > 100 µM (inactive) | 84.1 µM (inactive) |  | > 100 µM (inactive)

— ChEMBL document CHEMBL1201862, “PubChem BioAssay data set” (2004)
